The values that follow come from patent US20230007838A1, “FUNCTIONALIZED LONG-CHAIN HYDROCARBON MONO- AND DI-CARBOXYLIC ACIDS AND THEIR USE FOR THE PREVENTION OR TREATMENT OF DISEASE” (ESPERVITA THERAPEUTICS, INC., priority 2019, published 2023).

Assay [1] relates to primary hepatocytes (m). Briefly: De novo lipogenesis (DNL) in mouse primary hepatocytes. Type of assay: cell-based. Conditions: Hepatocyte.
Assay [2] deals with Hepa1-6 cells. Briefly: Clonogenicity (colony formation) in Hepa1-6 liver cancer cells. The class given is cell-based, murine. Conditions: Mus musculus, 168 h; Hepa1-6 (m), 7 days treatment. The protocol: (§1) Liver cancer cell lines Hep3B (human) and Hepa1-6 (murine) were maintained in either Eagle's Minimum Essential Medium (Corning) for Hep3B cells or High Glucose DMEM (Gibco) for Hepa1-6 cells, supplemented with 10% FBS (Gibco) and 1% Antibiotic-Antimycotic (Thermo-Fisher Scientific). Each cell line was seeded at 1000 cells/well in 12-well plates. The next day, the media were replaced, and cells were treated with 0 (vehicle control, 0.1% DMSO), 1, 5, 10, 30, 50, or 100 μM Compound I-32, I-61, I-1, or III-1 (final concentration of DMSO 0.1%) for 7 days. On day 9, the media were removed, and cells were fixed with 10% formalin (500 μl) for 10 minutes at room temperature, washed with 1×PBS and stained with crystal violet. After 10 minutes the excess stain was removed by rinsing three times with tap water. The plates were allowed to dry overnight, then the number of colonies (>50 cells) in each well were counted using light microscopy as described previously by Villiani L. A., et al.

Assay [3] has as its system Hep3B cells. Briefly: Clonogenicity (colony formation) in Hep3B liver cancer cells. Conditions: Homo sapiens, 168 h, 7 days treatment. Type of assay: cell-based. The procedure:
as §1

For assay [4], the system named is Hepa1-6 cells. Description: Cancer cell proliferation (PrestoBlue) in Hepa1-6 cells. Type of assay: cell-based, murine. Conditions: Hepa1-6 (m), 72 hours. The procedure: (§2) Human liver cancer cells Hep3B and murine liver cancer cells Hepa1-6, respectively, were seeded at a cell density of 3000 cells/well in 96-well plates using either Eagle's Minimum Essential Medium (Corning) for Hep3B or Dulbecco's Modified Eagle's Medium (DMEM) High Glucose (Gibco) for Hepa1-6 cells, supplemented with 10% fetal bovine serum (FBS, Gibco) and 1% Antibiotic-Antimycotic solution (Thermo-Fisher Scientific). The next day, the cells were treated with 0 (vehicle control), 0.1, 0.5, 1, 5, 10, 30, 50 or 100 μM Compound I-32, I-61, I-1, or III-1 (final concentration of DMSO 0.1%) and were allowed to grow for 72 hours at 37° C. On day 5, 10 μl of PrestoBlue™ Cell Viability Reagent (Invitrogen) was added to each well and the plate was incubated at 37° C. for an additional 1-2 hours.

Assay [5] deals with Hep3B cells. Description: Cancer cell proliferation (PrestoBlue) in Hep3B cells. Type of assay: cell-based, human. Conditions: Hep3B (h), 72 hours. The procedure:
as §2

The subject of assay [6] is Hep3B cells. Briefly: Combination study with sorafenib or lenvatinib, proliferation in Hep3B cells. Conditions: for Synergistic or additive effect on antiproliferative activity (CompuSyn analysis): in the presence of sorafenib or lenvatinib, FIGS. 8A-8D; for IC50: read-out: IC50 for inhibition of proliferation.
Method: (§3) Hep3B (supplied by ATCC) or Hepa1-6 (supplied by ATCC) cells were seeded in 96-well plates at a density of 500 cells/well with complete media. […] Then, cells were incubated in an incubator for 72 h. On day 5, 10 μl of presto blue (Invitrogen, cat # A13261) cell viability reagent was added in each 96-well plate and incubated at 37° C. for 1-2 h. After incubation, fluorescence was measured with an excitation/emission wavelength of 560/590 nm. […] Proliferation IC50 values were calculated using a non-linear regression model in Graph pad Prism 8.
Assay [7] deals with Hepa1-6 cells. Description: Combination study with sorafenib or lenvatinib, proliferation in Hepa1-6 cells.
Method: as §3

Consider `CC(C)(CCCCc1ccc(CCCCC(C)(C)C(=O)O)cc1)C(=O)O` [Compound I-1, 6,6′-(1,4-phenylene)bis(2,2-dimethylhexanoic acid)], for which the IC50 in assay [1] worked out at 12.1 µM; in assay [2], 55.6 µM; in assay [3], 53.9 µM. The “Cancer Cell Proliferation % reduction vs control at 100 μM, Mean (Standard Deviation)” value is 25.9 (5.7) % in assay [4] and 41.8 (8.4) % in assay [5].

Take `CC(C)(CCCCc1cccc(CCCCC(C)(C)C(=O)O)c1)C(=O)O` [Compound I-32, 6-[3-(5-Carboxy-5-methylhexyl)-phenyl]-2,2-dimethylhexanoic acid]: the IC50 in assay [1] is 8.3 µM; in assay [2], 52.3 µM; in assay [3], 41.7 µM. Moreover, the “Cancer Cell Proliferation % reduction vs control at 100 μM, Mean (Standard Deviation)” value was 18.6 (3.1) % in assay [4] and 30.8 (2.6) % in assay [5]. For the same compound, the “Synergistic or additive effect on antiproliferative activity (CompuSyn analysis)” value in assay [6] (Hep3B cells) is “synergistic inhibition”.

On to `CC(C)(CCCc1ccccc1CCCC(C)(C)C(=O)O)C(=O)O` [Compound I-61, 5,5′-(1,2-Phenylene)bis(2,2-dimethylpentanoic acid)], for which the IC50 was found to be 73.4 µM in assay [2] and 57.3 µM in assay [3]. Further, the results for the “Cancer Cell Proliferation % reduction vs control at 100 μM, Mean (Standard Deviation)” value in assay [4] and in assay [5] were 21.8 (8.9) % and 35.7(5.8) %, respectively. Moreover, the “Synergistic or additive effect on antiproliferative activity (CompuSyn analysis)” value in assay [6] (Hep3B cells) is given as “synergistic inhibition”.

As for `CC(C)(CCCc1ccc(CCCC(C)(C)C(=O)O)cc1)C(=O)O` [III-1, 1,4-Bis(4-carboxy-4-methylpentyl)benzene], the IC50 amounted to 61 µM in assay [2] and 55.6 µM in assay [3]. Further, the “Cancer Cell Proliferation % reduction vs control at 100 μM, Mean (Standard Deviation)” value in assay [4] was 15.7 (6.7) %; in assay [5], 29.7 (6.2) %.

Take `COc1cc2nccc(Oc3ccc(NC(=O)NC4CC4)c(Cl)c3)c2cc1C(N)=O` [lenvatinib, reference compound]: the IC50 is 0.5 µM in assay [6] (Homo sapiens, Hep3B) and 30 µM in assay [7] (Mus musculus, Hepa1-6, read-out: IC50 for inhibition of proliferation).

`CNC(=O)c1cc(Oc2ccc(NC(=O)Nc3ccc(Cl)c(C(F)(F)F)c3)cc2)ccn1` [sorafenib, reference compound]: the IC50 worked out at 3 µM in assay [6] (Hep3B cells, in the absence of a compound of the invention, separate experiment (data not shown)) and 5 µM in assay [7] (read-out: IC50 for inhibition of proliferation, Hepa1-6 cells, in the absence of a compound of the invention, separate experiment (data not shown)).
